Converted amounts (≈) assume the structure as drawn.

For this data set the following is noted: buffer; pH 7.4; 200.0 µM.
The solubility (kinetic) is solubility judged after dilution from a stock solution rather than from solid. Consider `C=CCN(C(=O)Nc1ccc2c(c1)nc(C)n2C)c1ccccc1`, for which the kinetic solubility is greater than 48.1 µg/mL. As for `Cc1cccc(OCCC(=O)Nc2ccccc2C(N)=O)c1`, the solubility (kinetic) was found to be 44.2 µg/mL (≈ 148 µM).

With `O=c1cc(-c2ccccc2)nc(Cc2c(Cl)cccc2Cl)[nH]1`, the kinetic solubility was less than 0.4 µg/mL. For the compound `O=C(NCCCn1ccnc1)/C(=C/c1cccnc1)NC(=O)c1ccco1`, the solubility (kinetic) is greater than 54.8 µg/mL. The same measure for `Cc1nn(CC(=O)N2CCc3ccccc3C2)c(C)c1[N+](=O)[O-]`: greater than 47.2 µg/mL; for `Cc1ccc(CNC(=O)CCn2c(=O)oc3ccccc32)cc1`: 5.1 µg/mL (≈ 16.4 µM); for `Cc1ccc2nc(-c3ccccc3)oc(=O)c2c1`: 0.9 µg/mL (≈ 3.79 µM).

For the compound `Cc1ccc(C(CC(=O)N2CCCC2)c2ccccc2)c(O)c1` (stereo unspecified), the kinetic solubility is greater than 46.4 µg/mL. `Cc1ccc(NC(=O)CN2CCCC2)cc1.Cl` came in with a kinetic solubility greater than 38.2 µg/mL. Consider `OC(CN1CCC(Cc2ccccc2)CC1)C(F)(F)F` (stereo unspecified), for which the solubility (kinetic) was greater than 43.1 µg/mL. As to `COc1ccc(/C=C/C(=O)Nc2ccccc2F)cc1S(=O)(=O)N1CCOCC1`, the solubility (kinetic) worked out at 37.5 µg/mL (≈ 89.2 µM).

In turn, `O=C(CSc1ccccc1)NCCc1ccccc1` registered a solubility (kinetic) of 39.4 µg/mL (≈ 145 µM). The same measure for `CSc1ncccc1C(=O)NCc1ccccc1Cl`: 38.1 µg/mL (≈ 130 µM); for `CC1(c2ccccc2)CC(c2ccccc2)=Nc2ccccc2N1` (stereo unspecified): 5.8 µg/mL (≈ 18.6 µM). `Cc1cccc(NC(=O)CN(C)C(=O)C2CCCC2)c1C`: the solubility (kinetic) was greater than 43.3 µg/mL. For the compound `Cc1cc(NS(=O)(=O)c2ccc(NC(=O)COc3ccc(C#N)cc3)cc2)nc(C)n1`, the kinetic solubility was greater than 65.6 µg/mL. The compound `COc1ccc(C(=O)NCCc2c[nH]c3ccc(OC)cc23)cc1` showed a kinetic solubility greater than 48.7 µg/mL. On to `O=C(CSC(=S)N1CCOCC1)Nc1nccs1`, for which the solubility (kinetic) was 7.9 µg/mL (≈ 26 µM).

In turn, `CC(C)CC(=O)c1c[nH]c(C(=O)NCc2cccnc2)c1` came in with a solubility (kinetic) of 30.9 µg/mL (≈ 108 µM). `Cc1cc(O)cc(=O)n1Cc1ccccc1` registered a kinetic solubility greater than 32.3 µg/mL. `O=C1NC2(CCCCC2)C(=O)N1CCN1C(=O)c2ccccc2C1=O` yielded a kinetic solubility of 40.1 µg/mL (≈ 117 µM). The same measure for `C/C(=C/c1ccccc1)C(=O)N1CCC(C)CC1`: greater than 36.5 µg/mL; for `O=C(NC1CCCC1)c1cc(-c2ccccc2O)on1`: 2.2 µg/mL (≈ 8.08 µM); for `CC(=O)Nc1ccc(NC(=O)CCOc2ccccc2C)cc1`: 21.1 µg/mL (≈ 67.5 µM). In turn, `Fc1ccc(-c2nc(-c3cnccn3)no2)c(Cl)c1` returned a solubility (kinetic) of 3.5 µg/mL (≈ 12.7 µM). In turn, `Cc1ccc(NC(=O)CNC(=O)c2ccco2)nc1` showed a solubility (kinetic) greater than 38.9 µg/mL.

The compound `Cc1cc(Nc2ccc([N+](=O)[O-])cc2)c2ccccc2n1` gave a kinetic solubility of 0.6 µg/mL (≈ 2.15 µM). For the compound `Cc1c(NC(=O)c2ccc(S(=O)(=O)Nc3ccccc3F)cc2)c(=O)n(-c2ccccc2)n1C`, the kinetic solubility was greater than 72.1 µg/mL. `Cc1ccccc1NC1=NC(=S)N(CC(N)=O)C12CCOC(C)(C)C2` (stereo unspecified): the kinetic solubility was greater than 54.1 µg/mL.

In the case of `O=C(OCc1c(F)cccc1Cl)c1cccnc1Cl`, the solubility (kinetic) was determined as 5.1 µg/mL (≈ 17 µM). In the case of `Cc1ccc2[nH]c(C(=O)N3CCN(c4cccc(Cl)c4)CC3)cc2c1`, the kinetic solubility is less than 0.3 µg/mL.

As for `CCC(C)NC(=O)c1c(N)n(CCCOC)c2nc3ccccc3nc12` (stereo unspecified), the kinetic solubility was found to be 6.4 µg/mL (≈ 18 µM). Compound `O=C(c1c(F)cccc1F)N1CCCc2ccccc21` gave a solubility (kinetic) greater than 41 µg/mL. Take `O=C(NCc1ccco1)c1cc(S(=O)(=O)NC2CC2)ccc1Br`: the kinetic solubility was greater than 59.9 µg/mL.

Turning to `CC(=O)Nc1ccc(NC(=O)CNC(=O)c2cccc(C)c2)cc1`, the solubility (kinetic) came out at 20.4 µg/mL (≈ 62.7 µM).

Take `Cc1cc(C)cc(C(=O)NC(=S)Nc2cccnc2)c1`: the solubility (kinetic) was found to be 8.4 µg/mL (≈ 29.4 µM).

In turn, `CCS(=O)CC(=O)Nc1c(-c2ccccc2)oc2ccccc2c1=O` (stereo unspecified) displayed a solubility (kinetic) of 44.8 µg/mL (≈ 126 µM). The same measure for `CCOc1ncccc1C(=O)OCC(=O)NCc1cccs1`: greater than 48.1 µg/mL. Compound `Cc1ccc2c(CN3CCC(C)CC3)cc(=O)oc2c1C` had a kinetic solubility of 3.9 µg/mL (≈ 13.7 µM). With `COc1ccc(S(=O)(=O)N2CC(C)N(C(=O)N3CCOCC3)C2)cc1` (stereo unspecified) the figure was greater than 55.4 µg/mL; with `O=C(NCCNC(=O)c1ccco1)c1ccc(F)cc1`, greater than 41.4 µg/mL.

Values taken from PubChem BioAssay AID1996.
